{
  "source": "paper PMC9318536",
  "about": "“Novel Cyclic Peptides for Targeting EGFR and EGRvIII Mutation for Drug Delivery” (Pharmaceutics, 2022)",
  "key": {"[1]": {"test_system": "DKMG cells", "assay": "XTT cytotoxicity of peptides, peptide-CPT conjugates and CPT on DKMG cells", "assay_type": "cell-based", "conditions": "for cell viability relative to control untreated cells (IC50 could not be calculated) / IC50 / effect on cell viability (in words): XTT; for IC50: non-linear regression, mean ± SD, triplicate; for effect on cell viability (in words): 24 h pre-incubation protocol", "description": "(§1) Cell growth in the presence of PDCs was measured by a commercial XTT assay kit (Cell Proliferation Kit, XTT based; Sartorius, Israel). The cells were seeded in 96-well plates (10^4 cells/well) and incubated overnight in a complete growth medium. They were then washed and re-cultured in 100 µL of fresh complete medium containing various concentrations of free drugs or PDCs, for 24, 48, and 72 h. The XTT solution was added to each well and the plate was further incubated for 2–3 h at 37 °C. The optical densities in the wells were measured at both 480 and 680 nm using a TECAN Infinite M200 ELISA reader. All tests were performed in triplicate, and each experiment was repeated three times.\n(§2) The cytotoxicity of the PDCs was tested against H1299 and DKMG cells using two protocols. In the first protocol, cells were incubated in a complete medium containing a range of concentrations (0.5–50 µM) of P6, P9, P6-CPT, or P9-CPT for 6 h, after which, the medium was replaced with fresh, drug-free, complete medium, and the cells were cultured for an additional 24 h (designated as 6h24h) or 48 h (6h48h). In the second protocol, cells were exposed continuously to free drugs or PDCs for 24, 48, and 72 h. For each case, during the culture period, cell cytotoxicity was determined as described above and IC50 values were calculated."}, "[2]": {"test_system": "H1299 cells", "assay": "XTT cytotoxicity of peptides, peptide-CPT conjugates and CPT on H1299 cells", "conditions": "for cell viability relative to control untreated cells (IC50 could not be calculated): H1299, XTT; for IC50: Homo sapiens", "description": "as §1, §2"}, "[3]": {"assay": "Drug release / PDC breakdown in complete growth medium", "assay_type": "in vitro ADME", "conditions": "RPMI and DMEM complete growth media, 37 °C, 0–72 h, LC–MS, triplicate", "description": "PDC breakdown rates were determined as described elsewhere. Briefly, peptide-FITC and peptide–CPT conjugates were incubated at 37 °C in 1 mL of DMEM or RPMI full-growth medium for […], 3, 7, 24, 48, and 72 h. At each time point, 10 µL of the sample was taken and mixed with 25 µL ACN/H20 (1:1, v/v.). The samples were centrifuged at 1400 rpm for 15 min. Supernatants were collected, filtered, and analyzed by liquid chromatography–mass spectrometry (LC–MS).\nThe release rates of CPT from P6-CPT and P9-CPT were measured in RPMI and DMEM complete growth media at 37 °C for 0, 0.5, 3, 7, 24, 48, and 72 h according to the procedure. The degradation of the conjugates and the CPT release were analyzed by LC–MS. […] The conjugates degraded with a half-life of 6–7 h (Figure 8)."}, "[4]": {"molecular_target": "T1, EGFR on H1299 cells (Homo sapiens, UniProt P00533)", "T1 construct": "H1299, H1975, and DKMG cells were characterized by cell surface overexpression of EGFR; endogenous in cells; host or cells: H1299 cells (ATCC)", "assay": "Competitive binding assay with EGF by FACS", "assay_type": "cell-based", "conditions": "H1299, 2.5 µM FITC-labeled peptides with or without 80 nM EGF, 4 °C 1 h then 37 °C 15 min, duplicate", "description": "H1299 and DKMG cell lines were cultured in a complete RPMI growth medium in a 6-well plate overnight, until 80% confluent. Pre-incubation was performed with a blocking buffer consisting of 5 mg/mL BSA in PBS, pH 7.4, at 4 °C for 30 min. Then, cells were washed twice in PBS and incubated with 2.5 µM of FITC-labeled peptides with or without 80 nM EGF at 4 °C for 1 h. The cells were then incubated for 15 min at 37 °C under 5% CO2 to allow for peptide internalization. The cells were washed twice by centrifugation at 265× g for 5 min and analyzed by flow cytometry.\nFigure 3 Competitive uptake of P3, P4, P5, P6, P9, and P11 peptides by FACS. Fluorescence was measured for H1299 cells (30,000 cells) after incubation with (2.5 µM) P3–P6, P9, and P11 by FITC-labeled peptides in the absence or presence of 80 nM of the EGF protein. The experiments were performed in duplicate. For each sample, the mean ± SD is shown (** p < 0.01, *** p < 0.001)."}, "[5]": {"conditions": "6 h exposure then 24 h drug-free medium (6h24h), 0.5–50 µM"}, "[6]": {"conditions": "H1299, first protocol (6 h preincubation, then up to 48 h), XTT"}},
  "note": "“Also recorded” adds a separate entry of the source. Where two headings read alike, the source gives them in different places. Marks after values point to notes of the source that are not given here. Positions of bridges follow the written chain, without caps; N, C: chain ends. Residues, ends and D or L forms follow the SMILES beside them. No end group written: not given here. *: point of attachment. Camptothecin(20S-OCO) = CC[C@@]1(OC(=O)*)C(=O)OCc2c1cc1n(c2=O)Cc2cc3ccccc3nc2-1; GABA = NCCCC(=O)O",
  "data": [
    {"compound": "CC[C@@]1(O)C(=O)OCc2c1cc1n(c2=O)Cc2cc3ccccc3nc2-1", "note": "[CPT, camptothecin]", "values": [
      {"measurement": "cell viability relative to control untreated cells (IC50 could not be calculated)", "setting": "[1]; [5]", "result": ">50", "unit": "% *"},
      {"measurement": "IC50", "setting": "[1]; 6 h exposure then 48 h in drug-free medium (6h48h), 0.5–50 µM", "result": "8.5 ± 1", "unit": "µM"},
      {"measurement": "IC50", "setting": "[1]; continuous exposure 24 h", "result": "25 ± 1.3", "unit": "µM"},
      {"measurement": "cell viability relative to control untreated cells (IC50 could not be calculated)", "setting": "[1]; continuous exposure 48 h", "result": "<50", "unit": "% **"},
      {"measurement": "cell viability relative to control untreated cells (IC50 could not be calculated)", "setting": "[1]; continuous exposure 72 h", "result": "<40", "unit": "% **"},
      {"measurement": "cell viability relative to control untreated cells (IC50 could not be calculated)", "setting": "[2]; [5]", "result": ">50", "unit": "% *"},
      {"measurement": "cell viability relative to control untreated cells (IC50 could not be calculated)", "setting": "[2]; continuous exposure 48 h", "result": "<45", "unit": "%"},
      {"measurement": "cell viability relative to control untreated cells (IC50 could not be calculated)", "setting": "[2]; continuous exposure 72 h", "result": "<15", "unit": "%"},
      {"measurement": "IC50", "setting": "[2]; NCI-H1299", "result": "6.7 ± 1.8", "unit": "µM"},
      {"measurement": "IC50", "setting": "[2]; NCI-H1299, 24 h", "result": "54.8 ± 2", "unit": "µM"}
    ]},
    {"compound": "CC[C@H](C)[C@@H]1NC(=O)[C@H](Cc2ccc(O)cc2)NC(=O)[C@H](CO)NC(=O)CNC(=O)[C@@H]2CCCN2C(=O)[C@H](C(C)C)NC(=O)[C@H](Cc2cnc[nH]2)NC(=O)[C@@H](NC(=O)CCCNC(=O)O[C@]2(CC)C(=O)OCc3c2cc2n(c3=O)Cc3cc4ccccc4nc3-2)CSSC[C@@H](C(N)=O)NC1=O", "note": "[P6-CPT] ({Camptothecin(20S-OCO)-GABA}-CHVPGSYIC-NH2; disulfide 1-9)", "values": [
      {"measurement": "cytotoxic effect (in words)", "setting": "[2]; [6]", "result": "exhibited cytotoxic effects after 48 h"},
      {"measurement": "half-life of conjugate degradation (CPT release)", "setting": "[3]", "result": "6 to 7", "unit": "h"}
    ]},
    {"compound": "CC[C@H](C)[C@@H]1NC(=O)[C@H](Cc2ccc(O)cc2)NC(=O)[C@H](CO)NC(=O)CNC(=O)[C@@H]2CCCN2C(=O)[C@H](C(C)C)NC(=O)[C@H](Cc2c[nH]cn2)NC(=O)[C@@H](N)CSSC[C@@H](C(=O)O)NC1=O", "note": "[P6] (H-CHVPGSYIC-OH; disulfide 1-9)", "values": [
      {"measurement": "cytotoxic effect (in words)", "setting": "[2]", "result": "not toxic"},
      {"measurement": "competition of EGF with peptide uptake", "setting": "[4]", "result": "better competition with EGF compared to P11"}
    ]},
    {"compound": "CC[C@@]1(OC(=O)NCCCC(=O)N[C@H]2CSSC[C@@H](C(N)=O)NC(=O)[C@H](Cc3ccc(O)cc3)NC(=O)[C@H](CO)NC(=O)[C@H](CCC(N)=O)NC(=O)[C@H](CCSC)NC(=O)[C@H](C)NC(=O)[C@H](CC(N)=O)NC(=O)[C@H](C(C)C)NC2=O)C(=O)OCc2c1cc1n(c2=O)Cc2cc3ccccc3nc2-1", "note": "[P9-CPT] ({Camptothecin(20S-OCO)-GABA}-CVNAMQSYC-NH2; disulfide 1-9; C-terminus assumed)", "values": [
      {"measurement": "IC50 compared to free CPT", "setting": "[1]; 6 h exposure then 48 h", "result": "four-fold higher"},
      {"measurement": "effect on cell viability (in words)", "setting": "[1]", "result": "did not affect cell viability"},
      {"measurement": "cytotoxic effect (in words)", "setting": "[2]; [6]", "result": "exhibited cytotoxic effects after 48 h"},
      {"measurement": "half-life of conjugate degradation (CPT release)", "setting": "[3]", "result": "6 to 7", "unit": "h"}
    ]},
    {"compound": "CSCC[C@@H]1NC(=O)[C@H](C)NC(=O)[C@H](CC(N)=O)NC(=O)[C@H](C(C)C)NC(=O)[C@@H](N)CSSC[C@@H](C(=O)O)NC(=O)[C@H](Cc2ccc(O)cc2)NC(=O)[C@H](CO)NC(=O)[C@H](CCC(N)=O)NC1=O", "note": "[P9] (H-CVNAMQSYC-OH; disulfide 1-9)", "values": [
      {"measurement": "effect on cell viability (in words)", "setting": "[1]", "result": "did not affect cell viability"},
      {"measurement": "cytotoxic effect (in words)", "setting": "[2]", "result": "not toxic"},
      {"measurement": "competition of EGF with peptide uptake", "setting": "[4]", "result": "EGF significantly competed; also recorded: better competition with EGF compared to P11"}
    ]},
    {"compound": "CAQYTPGRC (disulfide 1-9) [P11]", "values": [
      {"measurement": "competition of EGF with peptide uptake", "setting": "[4]", "result": "EGF significantly competed"}
    ]}
  ]
}
